In patent EP0802730B1, “PESTICIDAL COMPOUNDS” (BTG INTERNATIONAL LIMITED, priority 1995, dated 1996):
Converted amounts (≈) assume the structure as drawn.

Key:
[1] = tested on: resistant strain of whitefly (Ned 1/2); assay: Whitefly vial test, resistant strain Ned 1/2; assay type: in vivo; settings: Bemisia tabaci, 48 h, read-out: BT (Ned 1/2) (LC50)
Protocol: Acetone solutions (0.100 ml) of the test compounds were placed in 10 ml glass vials and evaporated with rotation to deposit a film of the compound. Thirty adult whiteflies were placed inside the vial, then after 60 minutes, the treated insects were transferred onto untreated cotton leaf discs which were kept moist on a bed of agar gel. The temperature was maintained at 25°C and mortality assessed after 48 hours. Three replicates were used at each of 5 to 7 dose levels per compound. LC50 values (ppm solution) were calculated by using a computer software package ("Polo-PC available from LeOra Software, Berkeley, California) (See M.R. Cahill and B. Hackett in Proceedings Brighton Crop Protection Conference, 1992). The test was carried out using a susceptible strain of whitefly (SUD-S) which was collected in Sudan in 1978 from cotton.
The whitefly activity test with (BT (SUD-S)) was repeated using a resistant strain of whitefly (Ned 1/2).

[2] = tested on: Myzus persicae, extremely resistant strain (794Jz); assay: Aphid dip test, resistant strain; assay type: in vivo; settings: read-out: % mortality corrected for control data

Row | Compound | LC50 [1] | mortality at 100 ppm [2] | mortality at 250 ppm [2] | mortality at 40 ppm [2]
1 | CC(C)(C)C1CCC(C2=C(O)C(=O)c3ccccc3C2=O)CC1 (stereo not drawn) [Compound B, 2-hydroxy-3-(4-t-butylcyclohexyl)-naphthalene-1,4-dione, reference compound] | 100 µg/mL (≈ 320 µM) | – | – | –
2 | CCC(C)(C)C1=C(O)C(=O)c2ccccc2C1=O [Example 1, 2-(1,1-dimethylpropyl)-3-hydroxynaphthalene-1,4-dione] | – | 10% | 43% | –
3 | CCC(C)(C)C1=C(OC(C)=O)C(=O)c2ccccc2C1=O [Example 2, 2-(1,1-dimethylpropyl)-3-ethanoyloxy-naphthalene-1,4-dione] | – | 17% | 47% | –
4 | CC(C)(C)C1=C(O)C(=O)c2ccccc2C1=O [Example 3, 2-(t-butyl)-3-hydroxy-naphthalene-1,4-dione] | – | 13% | 87% | 10%
5 | CC1(C2=C(O)C(=O)c3ccccc3C2=O)CCCCC1 [Example 25, 2-hydroxy-3-(1'-methylcyclohexyl)-naphthalene-1,4-dione] | 0.1 µg/mL (≈ 0.37 µM) | 27% | 79% | 10%
